Here are results for one molecule from article PMC9469500, “Targeting an Initiator Allergen Provides Durable and Expansive Protection against House Dust Mite Allergy” (ACS Pharmacology & Translational Science, 2022).

By inhibition is commonly meant the percentage by which the read-out fell short of the control. The bioavailability is dose-corrected exposure relative to a reference, in per cent. In general, half-life refers to how long it takes for the measured level to halve. A high value points to slow loss. Usually fraction unbound stands for the share of the substance not bound to proteins or other matrix. Low readings indicate extensive binding, high ones weak binding.

One data set relates to unsensitized BN rats. Kind of data set: HDM extract challenge in unsensitized (naive) BN rats, duration of protection. Type of data set: in vivo.
Data set [1] in a line: Plasma protein binding (human). Type of data set: in vitro ADME. As for the experimental part:
Plasma Protein Binding Assay
Plasma protein binding (PPB) was determined using Rapid Equilibrium Dialysis chambers with 8 kDa cut-off inserts (Fisher Scientific UK Ltd, Leicestershire, UK). Rat (Sprague Dawley strain) plasma EDTA K2 (pooled, mixed sex, SeraLab, West Sussex, UK) was centrifuged (13,000 x g, 10 min) to remove precipitates before addition of compounds (initial concentration 5 µM). Concentrations were determined by liquid chromatography-tandem mass spectrometry (LC-MS-MS) (AB Sciex 3200 QTrap) after 4 h incubation at 37 °C with binding being calculated from the concentration of compound in each chamber. Assays were performed in replicate and the data expressed as mean ± s.e.
Cellular Stability of Compounds […]
Kaighn’s modification of Ham’s F12 medium (F12K). Cells were prepared for assay by washing 3 times with serum-free F12K. NR8383 Airway macrophages were grown in suspension culture in F12K, collected by centrifugation, washed in serum-free medium and aliquoted into test plates (1.4 x 10^6 cells/well). Both cell lines were treated with ADI compounds (100 nM) in serum -free F12K in a 5% CO 2 environment at 37 […]
n-Octanol (0.7 mL), pre -saturated with 10 mM PBS, pH7.4, was added to test compound (~1 mg) in a 2 mL HPLC vial followed by PBS (0. 7 mL), which had been pre -saturated with n -octanol. […]

[2] abbreviates: HDM-naive rats, 15 μg/kg i.t. aerosol 2 h prior to HDM 10, BAL 48 h.
The mark [3] stands for this setting: single i.t. dose (15 μg/kg compound 1, 46 μg/kg compound 2), BAL 48 h.

Where only a bound is given, the exact number is not on record here.

Experimental for Pharmacokinetics in rats: Soluble formulations were developed and verified by high performance liquid chromatography (HPLC)
1 mL/kg) and p.o. (5 mg/kg, 5 mL/kg) in non-fasted Sprague-Dawley rats (male, 200-300 g, 10-16 weeks
of age, groups of three animals per route per compound). Timed blood samples were taken after dosing
and plasma prepared for LC-MS-MS quantification of the test substance after inclusion of an internal
standard. A non -compartmental model in WinNonlin software was used to calculate pharmacokinetic

As to `CC(C)[C@H](NC(=O)[C@H](C)NC(=O)[C@@H](NC(=O)c1ccccc1)C(C)(C)C)C(=O)C(=O)NCc1ccccc1` [Compound 1, N-{(S)-1-[(S)-1-((S)-1-benzylaminooxalyl-2-methyl-propylcarbamoyl)-ethylcarbamoyl]-2,2-dimethyl-propyl}-benzamide], the neutrophil response result with unsensitized BN rats (BAL performed 24 h after HDM extract challenge, dosed 2 h prior) is “clear inhibition”. Further, in the data set with unsensitized BN rats (setting [2]), the BAL monocyte/macrophage numbers result is given as “suppressed”, the BAL neutrophil numbers result is on record as “suppressed” and the “cellularity of BAL fluid” value is “suppressed”. Moreover, in the data set with unsensitized BN rats (Rattus norvegicus, Eosinophil, inhaled or nasal, 48 h, read-out: inhibition of eosinophil response at peak), the inhibition at 0.015 mg/kg is > 60%. In the data set with unsensitized BN rats (estimated, Figure 5D–F, in words), the “onset: temporal separation between drug dosing and HDM challenge required to achieve 50% inhibition of the eosinophil response” value is “faster in onset”. In addition, in the data set with unsensitized BN rats (focused library, durability of inhibition studies), the “performance in vivo (maximum inhibition of the eosinophil response, Figure 5A)” value was “performed well”. In addition, the “effects on BAL neutrophils” value with unsensitized BN rats (intervening pretreatment intervals, BAL 48 h) is listed as “insignificant”. For the same molecule, the “inhibition of BAL monocytes/macrophages (significance)” value with unsensitized BN rats (pretreatment 60 min, 15 μg/kg i.t., BAL 48 h) is reported as “significant”. Further, in the data set with unsensitized BN rats (short or long pretreatment intervals, BAL 48 h), the “effects on BAL neutrophils” value is listed as “inhibitory”. Further, in the data set with unsensitized BN rats (shorter pretreatment times, BAL 48 h), the “effect on BAL monocytes/macrophages” value is “modest inhibition”. In the data set on unsensitized BN rats (setting [3]), the “effect on eosinophils with 6–8 h separation of dose and challenge” value was “substantial inhibition”; the “time of administration before challenge giving peak effects on eosinophils” value worked out at 2 h. Further, the bioavailability in “Pharmacokinetics in rats” (male, Sprague-Dawley, rat, plasma, po, 5 mg/kg) came to 39%. The half-life in “Pharmacokinetics in rats” (male, Sprague-Dawley, rat, plasma, po, 5 mg/kg, rat p.o., fasted) was 2.1 h. The half-life in the data set “Pharmacokinetics in rats” (male, Sprague-Dawley, rat, plasma, po, 5 mg/kg, rat p.o., fed) was 2.9 h. The same molecule registered a volume of distribution in “Pharmacokinetics in rats” (rat p.o.) of 0.9 L/kg. In “Pharmacokinetics in rats” (rat p.o., fasted), the clearance was 27 (fasted) mL/min/kg. Besides, in data set [1], the fraction unbound at 4 h, 5 µM was 0.004.
